The numbers were not newly measured in patent US20020142346A1, “Binding compounds and methods for identifying binding compounds” (priority 2000, published 2002), which cites them from elsewhere.

One series has as its target Src. Particulars: binding domain Src; preferred peptide.
The target of the next series is T1, SH2 (src) (Homo sapiens, UniProt P12931).
T1 construct: SH2 (src)
The following applies: binding domain SH2 (src); preferred peptide.

In general, Kd refers to the free concentration of one partner at which half of the binding sites on the other are occupied at equilibrium, for simple one-to-one binding. For EPQpYEEIPIYLK, the dissociation constant (Kd) on Src was 80 nM.

As to PYEEIY, the Kd on SH2 (src) is 100 nM.
